Residues, ends and D or L forms follow the SMILES beside them. No end group written: not given here. *: point of attachment. X1 = CCCC[C@@H](CCS(C)(=O)=O)Nc1nc(N)nc(C)c1Cc1cc(CC(=O)*)ccc1OC A value given as a limit tells only on which side of the number the result lay.

By EC50 is commonly meant the concentration needed to bring the measured effect to its halfway point.

One test concerns the target T1, human TLR7 (hTLR7) (Homo sapiens, UniProt Q9NYK1).
T1 construct: host or cells: HEK293 (HEK-Blue hTLR7)
T1 sequence (Q9NYK1 27-1049): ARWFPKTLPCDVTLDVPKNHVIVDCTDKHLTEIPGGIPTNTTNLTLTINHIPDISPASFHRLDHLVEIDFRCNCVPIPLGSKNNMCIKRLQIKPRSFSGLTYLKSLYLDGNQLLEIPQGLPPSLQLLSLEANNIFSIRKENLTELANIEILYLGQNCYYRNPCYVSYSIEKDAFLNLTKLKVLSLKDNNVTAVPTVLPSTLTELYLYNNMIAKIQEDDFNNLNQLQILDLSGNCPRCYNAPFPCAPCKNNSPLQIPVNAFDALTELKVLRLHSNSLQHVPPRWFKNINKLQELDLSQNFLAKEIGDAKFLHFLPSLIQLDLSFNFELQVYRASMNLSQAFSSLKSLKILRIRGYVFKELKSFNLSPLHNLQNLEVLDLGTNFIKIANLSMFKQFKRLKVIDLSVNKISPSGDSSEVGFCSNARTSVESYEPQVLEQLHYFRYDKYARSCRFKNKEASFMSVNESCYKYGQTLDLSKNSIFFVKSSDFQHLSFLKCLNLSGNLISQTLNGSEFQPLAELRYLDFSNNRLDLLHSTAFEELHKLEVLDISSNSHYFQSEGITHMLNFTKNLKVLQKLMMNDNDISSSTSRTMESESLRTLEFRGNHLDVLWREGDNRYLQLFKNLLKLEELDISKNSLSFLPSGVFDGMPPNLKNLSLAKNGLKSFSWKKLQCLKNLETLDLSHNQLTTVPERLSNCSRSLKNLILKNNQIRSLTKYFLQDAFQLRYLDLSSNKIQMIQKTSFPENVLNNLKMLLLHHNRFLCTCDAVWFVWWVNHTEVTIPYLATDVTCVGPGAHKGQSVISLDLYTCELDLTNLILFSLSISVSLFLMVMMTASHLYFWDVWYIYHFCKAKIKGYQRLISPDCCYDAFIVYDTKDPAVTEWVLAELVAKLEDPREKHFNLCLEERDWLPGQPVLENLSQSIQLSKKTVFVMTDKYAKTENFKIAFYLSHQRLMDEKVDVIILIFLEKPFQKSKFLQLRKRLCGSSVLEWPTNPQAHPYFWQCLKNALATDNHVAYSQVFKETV
Kind of test: HEK-Blue hTLR7 cell assay (NF-kB/AP-1 driven SEAP reporter).
Details: not given
The test is classed as cell-based. From the text:
HEK-Blue™ TLR7 cells were purchased from Invivogen (San Diego, Calif.). The following description was taken from the product information sheet.
“HEK-Blue™ hTLR7 cells are designed for studying the stimulation of human TLR7 (hTLR7) by monitoring the activation of NF-kB. HEK-Blue™ hTLR7 cells were obtained by co-transfection of the hTLR7 gene and an optimized secreted embryonic alkaline phosphatase (SEAP) reporter gene into HEK293 cells. The SEAP reporter gene is placed under the control of the IFN-b minimal promoter fused to five NF-kB and AP-1-binding sites. Stimulation with a TLR7 ligand activates NF-kB and AP-1 which induce the production of SEAP, which is detected by the HEK-Blue™ Detection cell culture medium.”
A typical assay protocol involved the following steps:
1. Cells were cultured according to the product information sheet.
2. 10 mM compound stock in DMSO were first diluted to 3 mM and then 3-fold serially diluted using DMSO to afford a 10-pt dilution.
3. 3 μl of the diluted DMSO were added to 57 μl HEK-Blue™ Detection media for a further 20-fold dilution.
4. 10 μl of the diluted compound in assay media were added into 40 μl cell culture (in HEK-Blue™ Detection media) in 384-well plate. Final cell concentration=8,000 cells per well.
5. The plates were incubated at 37° C. in 5% CO2 for 16 h. SEAP was determined using a spectrophotometer at 620-655 nm.
For the compound `CC[C@H](C)[C@H](NC(=O)[C@H](CCCCN)NC(=O)CNC(=O)[C@@H](NC(=O)[C@@H](NC(=O)[C@@H](NC(=O)[C@H](Cc1ccccc1)NC(=O)[C@H](C)NC(=O)[C@H](CCCNC(=N)N)NC(=O)CNC(=O)[C@@H]1CCCN1C(=O)CNC(=O)[C@H](CCCNC(=N)N)NC(=O)[C@H](CCC(N)=O)NC(=O)[C@@H](NC(=O)[C@H](CCCNC(=N)N)NC(=O)[C@@H](NC(=O)[C@H](CO)NC(=O)[C@H](CCCCN)NC(=O)[C@H](CCCNC(=N)N)NC(=O)[C@@H](N)CCCCN)[C@@H](C)CC)[C@@H](C)CC)C(C)C)[C@@H](C)O)[C@@H](C)CC)C(=O)NCC(=O)N[C@@H](CC(N)=O)C(=O)N[C@@H](CCSC)C(=O)N[C@@H](CCCNC(=N)N)C(=O)O` [AP6], the EC50 was > 30 µM.
On to EQLSSVSSFERFEIFPKESSWPNHN [AP11], for which the EC50 was > 30 µM.
On the same count and under the same terms, under `CCCC[C@@H](CCS(C)(=O)=O)Nc1nc(N)nc(C)c1Cc1cc(CC(=O)N[C@@H](CC(C)C)C(=O)N[C@@H](CC(C)C)C(=O)N[C@H](C(=O)N[C@@H](CCCNC(=N)N)C(=O)N[C@H](C(=O)N[C@@H](CC(C)C)C(=O)N[C@H](C(=O)N[C@H](C(=O)N2CCC[C@H]2C(=O)N[C@@H](CCC(N)=O)C(=O)N[C@@H](CO)C(=O)N[C@@H](CC(C)C)C(=O)N[C@@H](CC(=O)O)C(=O)N[C@@H](CO)C(=O)N[C@@H](Cc2c[nH]c3ccccc23)C(=O)N[C@@H](Cc2c[nH]c3ccccc23)C(=O)N[C@H](C(=O)N[C@@H](CO)C(=O)N[C@@H](CC(C)C)C(=O)N[C@@H](CC(N)=O)C(=O)N[C@@H](Cc2ccccc2)C(=O)N[C@@H](CC(C)C)C(=O)NCC(=O)NCC(=O)N[C@@H](CO)C(=O)O)[C@@H](C)O)[C@@H](C)CC)[C@@H](C)O)[C@@H](C)CC)[C@@H](C)O)ccc1OC` [*AP9] (X1-LLTRILTIPQSLDSWWTSLNFLGGS-OH) stands 0.32 µM.
Same read-out and setting: as for ESLKISQAVHAAHAEINEAGREVVG [AP10], the figure is > 30 µM; as for `CCCC[C@@H](CCS(C)(=O)=O)Nc1nc(N)nc(C)c1Cc1cc(CC(=O)N[C@@H](CC(N)=O)C(=O)N[C@@H](CCCNC(=N)N)C(=O)N[C@@H](Cc2ccccc2)C(=O)N[C@H](C(=O)N[C@@H](CO)C(=O)N[C@H](C(=O)N[C@@H](Cc2ccccc2)C(=O)N[C@@H](C)C(=O)N[C@@H](CO)C(=O)NCC(=O)N2CCC[C@H]2C(=O)N[C@@H](CO)C(=O)N[C@@H](CCC(N)=O)C(=O)N[C@@H](CCCCN)C(=O)N[C@H](C(=O)N[C@@H](CCC(N)=O)C(=O)N[C@@H](CC(C)C)C(=O)N[C@H](C(=O)N[C@@H](CC(N)=O)C(=O)N[C@@H](CC(N)=O)C(=O)N[C@@H](CC(N)=O)C(=O)NCC(=O)N[C@@H](CO)C(=O)N[C@@H](Cc2c[nH]c3ccccc23)C(=O)N[C@@H](Cc2c[nH]cn2)C(=O)O)C(C)C)[C@@H](C)CC)[C@@H](C)CC)C(C)C)ccc1OC` [*AP5] (X1-NRFVSIFASGPSQKIQLVNNNGSWH-OH), 0.15 µM.

Still in this test, the particulars now being: HEK TLR7 activity of Compound 1-peptide conjugates; read-out: EC50, Peptide - Compound 1 Conjugate.
For `CCCC[C@@H](CCS(C)(=O)=O)Nc1nc(N)nc(C)c1Cc1cc(CC(=O)N[C@@H](CCC(=O)O)C(=O)N[C@@H](CCC(N)=O)C(=O)N[C@@H](CC(C)C)C(=O)N[C@@H](CO)C(=O)N[C@@H](CO)C(=O)N[C@H](C(=O)N[C@@H](CO)C(=O)N[C@@H](CO)C(=O)N[C@@H](Cc2ccccc2)C(=O)N[C@@H](CCC(=O)O)C(=O)N[C@@H](CCCNC(=N)N)C(=O)N[C@@H](Cc2ccccc2)C(=O)N[C@@H](CCC(=O)O)C(=O)N[C@H](C(=O)N[C@@H](Cc2ccccc2)C(=O)N2CCC[C@H]2C(=O)N[C@@H](CCCCN)C(=O)N[C@@H](CCC(=O)O)C(=O)N[C@@H](CO)C(=O)N[C@@H](CO)C(=O)N[C@@H](Cc2c[nH]c3ccccc23)C(=O)N2CCC[C@H]2C(=O)N[C@@H](CC(N)=O)C(=O)N[C@@H](Cc2c[nH]cn2)C(=O)N[C@@H](CC(N)=O)C(=O)O)[C@@H](C)CC)C(C)C)ccc1OC` [*AP11] (X1-EQLSSVSSFERFEIFPKESSWPNHN-OH), the EC50 was 0.3 µM.
Still for that read-out and setting: under `CCCC[C@@H](CCS(C)(=O)=O)Nc1nc(N)nc(C)c1Cc1cc(CC(=O)N[C@@H](CCC(=O)O)C(=O)N[C@@H](CO)C(=O)N[C@@H](CC(C)C)C(=O)N[C@@H](CCCCN)C(=O)N[C@H](C(=O)N[C@@H](CO)C(=O)N[C@@H](CCC(N)=O)C(=O)N[C@@H](C)C(=O)N[C@H](C(=O)N[C@@H](Cc2c[nH]cn2)C(=O)N[C@@H](C)C(=O)N[C@@H](C)C(=O)N[C@@H](Cc2c[nH]cn2)C(=O)N[C@@H](C)C(=O)N[C@@H](CCC(=O)O)C(=O)N[C@H](C(=O)N[C@@H](CC(N)=O)C(=O)N[C@@H](CCC(=O)O)C(=O)N[C@@H](C)C(=O)NCC(=O)N[C@@H](CCCNC(=N)N)C(=O)N[C@@H](CCC(=O)O)C(=O)N[C@H](C(=O)N[C@H](C(=O)NCC(=O)O)C(C)C)C(C)C)[C@@H](C)CC)C(C)C)[C@@H](C)CC)ccc1OC` [*AP10] (X1-ESLKISQAVHAAHAEINEAGREVVG-OH) stands 0.21 µM.

The same test, now with this note: HEK TLR7 activity of unconjugated (naked) peptides; read-out: EC50, Peptide without Compound 1.
As for `CC[C@H](C)[C@H](NC(=O)[C@H](CC(C)C)NC(=O)[C@@H](NC(=O)[C@H](CC(C)C)NC(=O)[C@H](CC(C)C)NC(=O)[C@H](CC(C)C)NC(=O)CN)C(C)C)C(=O)N[C@@H](Cc1ccc(O)cc1)C(=O)N[C@@H](CC(C)C)C(=O)N[C@@H](Cc1ccc(O)cc1)C(=O)NCC(=O)N1CCC[C@H]1C(=O)N[C@@H](CO)C(=O)N[C@@H](CC(C)C)C(=O)N[C@@H](Cc1ccc(O)cc1)C(=O)N[C@@H](CCCNC(=N)N)C(=O)N[C@@H](CCCNC(=N)N)C(=O)N[C@@H](Cc1ccccc1)C(=O)N[C@@H](Cc1ccccc1)C(=O)N[C@@H](CO)C(=O)N[C@@H](CC(N)=O)C(=O)N[C@@H](CC(=O)O)C(=O)N[C@@H](CS)C(=O)N[C@@H](CS)C(=O)N[C@@H](CO)C(=O)O` [AP4] (H-GLLLVLIYLYGPSLYRRFFSNDCCS-OH), the 50% effective concentration (EC50) is > 30 µM.
Take LGRLMYDMYPHFMPTNLGPSEKRVW [AP8]: the EC50 was > 30 µM.
Still for that read-out and setting: under `CC[C@H](C)[C@H](NC(=O)[C@H](CCCCN)NC(=O)CNC(=O)[C@@H](NC(=O)[C@@H](NC(=O)[C@H](Cc1ccccc1)NC(=O)[C@H](C)NC(=O)[C@H](CCCNC(=N)N)NC(=O)CNC(=O)[C@@H]1CCCN1C(=O)CNC(=O)[C@H](CCCNC(=N)N)NC(=O)[C@H](CCC(N)=O)NC(=O)[C@@H](NC(=O)[C@H](CCCNC(=N)N)NC(=O)[C@@H](NC(=O)[C@H](CO)NC(=O)[C@H](CCCCN)NC(=O)[C@H](CCCNC(=N)N)NC(=O)[C@@H](N)CCCCN)[C@@H](C)CC)[C@@H](C)CC)C(C)C)[C@@H](C)O)C(=O)NCC(=O)N[C@@H](CC(N)=O)C(=O)N[C@@H](CCSC)C(=O)N[C@@H](CCCNC(=N)N)C(=O)N[C@@H](CCC(N)=O)C(=O)O` [AP2] stands > 30 µM.

Still in this test, the particulars now being: HEK-Blue hTLR7 cells, 16 h incubation, SEAP read at 620-655 nm; read-out: HEK-TLR7 EC50.
For the compound `CCCC[C@@H](CCS(C)(=O)=O)Nc1nc(N)nc(C)c1Cc1cc(CC(=O)O)ccc1OC` [Compound 1, (S)-2-(3-((2-amino-4-methyl-6-((1-(methylsulfonyl)heptan-3-yl)amino)pyrimidin-5-yl)methyl)-4-methoxyphenyl)acetic acid], the EC50 was determined as 0.1 µM.
On the same count and under the same terms, under `CCCC[C@@H](CCS(C)(=O)=O)Nc1nc(N)nc(C)c1Cc1cc(CC(=O)NCCCC[C@H](NC(C)=O)C(=O)O)ccc1OC` [Compound 1-lysine conjugate] stands 0.1 µM.

These data come from patent US20210228713A1, “TLR7 PEPTIDE CONJUGATES” (Apros Therapeutics, Inc., priority 2018, published 2021).
